Measured values as given in patent publication EP4230701A1, “4-STYRYL COUMARINS DERIVATIVES AS FLUORESCENT LABELS FOR BIOMOLECULES” (Universidade de Évora, priority 2022, dated 2023).
Where “and” joins values, the source holds several entries; their conditions need not be identical. Equal values may be shown once. Read-outs that look alike come from different tables or passages of the source.

Key:
Type in all cases: physicochemical
[1] = Fluorescence quantum yield in ethanol against 7-diethylamino-4-methylcoumarin as standard
[2] = UV-Vis absorption spectra in acetonitrile; settings: for λabs: Absorption maxima in acetonitrile
Experimental: (§1) All starting materials and reagents were analytical grade, purchased from Aldrich and used without further purification. The organic solvents were dried over appropriate drying agents and distilled prior to use. UV-Vis absorption spectra were recorded on the Thermo Electron Spectrophotometer Corporation, model Nicolet Evolution 300, using acetonitrile (CH3CN) as solvent. Fluorescence spectra were recorded on a PerkinElmer Model LS 55 spectrophotometer. FTMS-ESI mass spectra were obtained on an Thermo Scientific Q Exactive Orbitrap Mass Spectrometer. Nuclear magnetic resonance (NMR) spectra were recorded at 400 MHz for ^1H NMR and at 100 MHz for ^13C NMR, on a Brucker Advance III spectrometer. For NMR spectra, deuterated chloroform (CDCl3) was used as solvent. The chemical shift (π) in ppm; coupling constants (J); relative intensity is indicated by the number of protons (H); multiplicities are indicated by singlet (s), doublet (d), double-doublet (dd), triplet (t), quadruple (q) and multiplet (m); coupling constants are given in Hertz (Hz).
as §1, with “400MHz” for “400 MHz”, “100MHz” for “at 100 MHz”, “^13C,” for “^13C NMR,”, “(CDCl3) or deuterated methanol (CD3OD)” for “(CDCl3)”, “(δ)” for “(π)”

[3] = Fluorescence emission spectra in acetonitrile; settings: Emission maxima in acetonitrile
Experimental: as §1
as §1, with “400MHz” for “400 MHz”, “100MHz” for “at 100 MHz”, “^13C,” for “^13C NMR,”, “(CDCl3) or deuterated methanol (CD3OD)” for “(CDCl3)”, “(δ)” for “(π)”

[4] = Fluorescence quantum yield in ethanol, standard 7-diethylamino-4-methylcoumarin (ΦF = 0.73 in ethanol)
[5] = Molar extinction coefficient at longest wavelength transition
[6] = Molar extinction coefficient at longest wavelength transition (Table 5)

bathochromic shift ([2]; compared with its precursor (2))	SMILES	ΦF [1, 4]	λabs [2] [nm]	ε [2, 5] [cm^-1M^-1]	λem [3] [nm]	ε [2, 6] [cm^-1m^-1]	bathochromic shift ([2]; compared with its precursor (1)) [nm]	ΦF [1]	visible shoulder (lowest energy S0 → S1 transition) ([2]; experimental absorption spectrum)
	CCN(CC)c1ccc2c(c1)OC(=C(C#N)C#N)C=C2/C=C/c1ccc(OCCCCCC(=O)O)cc1 [Compound 8, (E)-6-(4-(2-(2-(dicyanomethylene)-7-(diethylamino)-2H-chromen-4yl)vinyl)phenoxy)hexanoic acid]	0.28	519	24000	596				
	CCN(CC)c1ccc2c(/C=C/c3ccccc3)cc(=[N+]3CCCCC3)oc2c1.O=[N+]([O-])[O-] [Compound 12, (E)-1-(7-(diethylamino)-4-styryl-2H-chromen-2-ylidene)-piperidin-1-ium nitrate]	0.34	467		525	17000			
	CCN(CC)c1ccc2c(c1)OC(=C(C#N)C#N)C=C2/C=C/c1ccc(C(=O)OC)cc1 [Compound 4]	0.04 and 0.08	520	19000	620				
	CCN(CC)c1ccc2c(c1)OC(=C(C#N)C#N)C=C2/C=C/c1ccc(OCCCCCC(=O)ON2C(=O)CCC2=O)cc1 [Compound 9, (E)-2,5-dioxopyrrolidin-1-yl 6-(4-(2-(2-(dicyanomethylene)-7-(diethylamino)-2Hchromen-4-yl)vinyl)phenoxy)hexanoate]	0.29	523	24000	597				
	CCN(CC)c1ccc2c(c1)OC(=C(C#N)C#N)C=C2/C=C/c1ccc(OC)cc1 [Compound 7, (E)-2-(7-(diethylamino)-4-(4-methoxystyryl)-2H-chromen-2-ylidene)malononitrile]	0.20	522	24000	602				
	CCN(CC)c1ccc2c(/C=C/c3ccc(C(=O)OC)cc3)cc(=[N+]3CCCCC3)oc2c1.O=[N+]([O-])[O-] [Compound 11, (E)-1-(7-(diethylamino)-4-(4-(methoxycarbonyl)styryl)-2H-chromen-2ylidene)piperidin-1-ium nitrate]	0.08	484	18000	609	18000			
	CCN(CC)c1ccc2c(/C=C/c3ccc(OCCCCCC(=O)ON4C(=O)CCC4=O)cc3)cc(=[N+]3CCCCC3)oc2c1.O=[N+]([O-])[O-] [Compound 16, (E)-1-(7-(diethylamino)-4-(4-((6-((2,5-dioxopyrrolidin-1-yl)oxy)-6oxohexyl)oxy)styryl)-2H-chromen-2-ylidene)piperidin-1-ium nitrate]	0.92	404		577	30000			
	CCN(CC)c1ccc2c(/C=C/c3ccc(OC)cc3)cc(=[N+]3CCCCC3)oc2c1.O=[N+]([O-])[O-] [Compound 14, (E)-1-(7-(diethylamino)-4-(4-methoxystyryl)-2H-chromen-2-ylidene)piperidin-1-ium nitrate]		410		578	30000			
	CCN(CC)c1ccc2c(/C=C/c3ccc(OCCCCCC(=O)O)cc3)cc(=[N+]3CCCCC3)oc2c1.O=[N+]([O-])[O-] [Compound 15, (E)-1-(4-(4-((5-carboxypentyl)oxy)styryl)-7-(diethylamino)-2H-chromen-2ylidene)piperidin-1-ium nitrate]	0.90	406		578	30000			
	CCN(CC)c1ccc2c(C)cc(=[N+]3CCCCC3)oc2c1.O=[N+]([O-])[O-] [Compound 10, 1-(7-(diethylamino)-4-methyl-2H-chromen-2-ylidene)-piperidin-1-ium nitrate]	0.14	437		490	21000	> 66		
	CCN(CC)c1ccc2c(/C=C/c3ccc(N(C)C)cc3)cc(=[N+]3CCCCC3)oc2c1.O=[N+]([O-])[O-] [Compound 13, (E)-1-(7-(diethylamino)-4-(4-(dimethylamino)styryl)-2H-chromen-2ylidene)piperidin-1-ium nitrate]		485	39000	608	39000			
	CCN(CC)c1ccc2c(C)cc(=O)oc2c1 [Compound 1, 7-diethylamino-4-methylcoumarin, reference compound]	0.73	371	22910	434	22910			
more than 100 nm	CCN(CC)c1ccc2c(c1)OC(=C(C#N)C#N)C=C2C [Compound 3, 2-(7-(diethylamino)-4-methyl-2H-chromen-2-ylidene)malononitrile]	0.05	477	38000	519				
	CCN(CC)c1ccc2c(c1)OC(=C(C#N)C#N)C=C2/C=C/c1ccc(N(C)C)cc1 [Compound 6, (E)-2-(7-(diethylamino)-4-(4-(dimethylamine)styryl)-2H-chromen-2ylidene)malononitrile]		496	34000	597			0.95 and 0.98	around 536 nm
	CCN(CC)c1ccc2c(c1)OC(=C(C#N)C#N)C=C2/C=C/c1ccccc1 [Compound 5]	0.16	516	17000	603				
